Data: patent US8680111B2 (Pfizer Inc., priority 2012, dated 2014)

Legend:
[1] = target: T1, human recombinant wild-type ALK kinase domain (amino acids 1093-1411) (Homo sapiens, UniProt Q9UM73); experiment: Wild-type ALK enzyme assay (microfluidic mobility shift); format: biochemical; details: ATP 60 μM, competitive inhibition fit, read-out: WT ALK enzyme assay (Ki)
T1 construct: ALK kinase domain (amino acids 1093-1411); made in house
Description: The reactions were incubated for 1 h at room temperature, stopped by the addition of 0.1 M EDTA, pH 8, and the extent of reactions (˜15-20% conversion with no inhibitor) was determined after electrophoretic separation of the fluorescently labeled peptide substrate and phosphorylated product on an LabChip EZ Reader II (Caliper Life Sciences, Hopkinton, Mass.).

[2] = target: T2, human recombinant L1196M ALK kinase domain (amino acids 1093-1411) (Homo sapiens, UniProt Q9UM73, L1196M); experiment: L1196M mutant ALK enzyme assay (microfluidic mobility shift); format: biochemical; details: ATP 60 μM, 0.5 nM enzyme, competitive inhibition fit; read-out: L1196M ALK enzyme assay (Ki)
T2 construct: ALK kinase domain (amino acids 1093-1411); made in house

Molecule	Ki [1] [nM]	Ki [2] [nM]
CN1Cc2nn(C)c(C#N)c2-c2cnc(N)c(n2)O[C@@H](CF)c2cc(F)ccc2C1=O [Example 94, (10R)-7-amino-12-fluoro-10-(fluoromethyl)-2,16-dimethyl-15-oxo-10,15,16,17-tetrahydro-2H-8,4-(azeno)pyrazolo[4,3-h][2,5,11]benzoxadiazacyclotetradecine-3-carbonitrile]	930	698
Cn1ncc2c1-c1cnc(N)c(c1)OCc1cc(F)ccc1OCCCCC2 [Example 42, 12-fluoro-1-methyl-1,4,5,6,7,8-hexahydro-14H-16,20-(metheno) pyrazolo[4,3-g][1,14,11]benzodioxazacycloheptadecin-17-amine]	500	2.89
CC1Oc2cc(cnc2N)-c2c(C(C)(C)C)nn(C)c2CN(C)C(=O)c2ncccc21 (stereo not shown) [Example 67, 7-amino-3-tert-butyl-1,10,16-trimethyl-16,17-dihydro-1H-8,4-(metheno)pyrazolo[4,3-g]pyrido[2,3-l][1,4,10]oxadiazacyclotetradecin-15(10H)-one]	411	> 1500
CC1Oc2cc(cnc2N)-c2c(cnn2C)CCCCCOc2ccc(F)cc21 (single isomer, unassigned) [Example 131, 12-fluoro-1,14-dimethyl-1,4,5,6,7,8-hexahydro-14H-16,20-(metheno)-pyrazolo-[4,3-g][1,14,11]benzodioxazacycloheptadecin-17-amine]	78.3	794
CC1Oc2cc(cnc2N)-c2c(nn(C)c2C2CC2)CN(C)C(=O)c2ccc(F)cc21 (single isomer, unassigned) [Example 16, 7-amino-3-cyclopropyl-12-fluoro-2,10,16-trimethyl-16,17-dihydro-2H-8,4-(metheno)pyrazolo[4,3-h][2,5,11]benzoxadiazacyclotetradecin-15(10H)-one]	213	> 2270
CC1Oc2cc(cnc2N)-c2c(C(C)(C)C)nn(C)c2CN(C)C(=O)c2ncccc21 (single isomer, unassigned) [Example 68, 7-amino-3-tert-butyl-1,10,16-trimethyl-16,17-dihydro-1H-8,4-(metheno)pyrazolo[4,3-g]pyrido[2,3-l][1,4,10]oxadiazacyclotetradecin-15(10H)-one]	207	> 1500
CC1Oc2cc(cnc2N)-c2c(cnn2C)CCCCCOc2ccc(F)cc21 (single isomer, unassigned) [Example 130, 12-fluoro-1,14-dimethyl-1,4,5,6,7,8-hexahydro-14H-16,20-(metheno)-pyrazolo-[4,3-g][1,14,11]benzodioxazacycloheptadecin-17-amine]	> 3000	> 3000
CC1Oc2cc(cnc2N)-c2c(C(C)(C)C)nn(C)c2CN(C)C(=O)c2ncccc21 (single isomer, unassigned) [Example 69, 7-amino-3-tert-butyl-1,10,16-trimethyl-16,17-dihydro-1H-8,4-(metheno)pyrazolo[4,3-g]pyrido[2,3-l][1,4,10]oxadiazacyclotetradecin-15(10H)-one]	> 3000	> 3000
CC1Oc2cc(cnc2N)-c2c(cnn2C)CCCCCOc2ccc(F)cc21 (stereo not shown) [Example 129, 12-fluoro-1,14-dimethyl-1,4,5,6,7,8-hexahydro-14H-16,20-(metheno)-pyrazolo-[4,3-g][1,14,11]benzodioxazacycloheptadecin-17-amine]	353	> 1500
Cn1nc2c(c1C#N)-c1cnc(N)c(n1)OCc1cc(F)ccc1COC2 [Example 107, 7-amino-12-fluoro-2-methyl-2,10,15,17-tetrahydro-8,4-(azeno)pyrazolo[4,3-h][2,11,5]benzodioxazacyclotetradecine-3-carbonitrile]	88.5	179
CC1c2nn(C)c(C#N)c2-c2cnc(N)c(n2)OCc2cc(F)ccc2C(=O)N1C (single isomer, unassigned) [Example 80, 7-amino-12-fluoro-2,16,17-trimethyl-15-oxo-10,15,16,17-tetrahydro-2H-8,4-(azeno)pyrazolo[4,3-h][2,5,11]benzoxadiazacyclotetradecine-3-carbonitrile]	> 3000	> 3000
7-amino-12-fluoro-3-methoxy-1,16,17-trimethyl-16,17-dihydro-1H-8,4-(azeno)pyrazolo[4,3-h][2,5,11]benzoxadiazacyclotetradecin-15(10H)-one [Example 128]	138	386
CC1Oc2nc(cnc2N)-c2c(nn(C)c2C#N)CN(C)C(=O)c2ccc(F)cc21 (single isomer, unassigned) [Example 33, 7-amino-12-fluoro-2,10,16-trimethyl-15-oxo-10,15,16,17-tetrahydro-2H-8,4-(azeno)pyrazolo[4,3-h][2,5,11]benzoxadiazacyclotetradecine-3-carbonitrile]	1010	> 2680
COc1nn(C)c2c1-c1cnc(N)c(c1)OC(CF)c1cc(F)ccc1C(=O)N(C)C2 (single isomer, unassigned) [Example 87, 7-amino-12-fluoro-10-(fluoromethyl)-3-methoxy-1,16-dimethyl-16,17-dihydro-1H-8,4-(metheno)pyrazolo[4,3-h][2,5,11]benzoxadiazacyclotetradecin-15(10H)-one]	270	51
7-amino-12-fluoro-3-methoxy-1,16,17-trimethyl-16,17-dihydro-1H-8,4-(azeno)pyrazolo[4,3-h][2,5,11]benzoxadiazacyclotetradecin-15(10H)-one [Example 126]	540	1070
COc1c2c(nn1C)CN(C)C(=O)c1ccc(F)cc1C(C)Oc1cc-2cnc1N (single isomer, unassigned) [Example 20, 7-amino-12-fluoro-3-methoxy-2,10,16-trimethyl-16,17-dihydro-2H-8,4-(metheno)pyrazolo[4,3-h][2,5,11]benzoxadiazacyclotetradecin-15(10H)-one]	34	450

Now those with a lower Ki [1], led by results:

Ki [1] [nM]	Ki [2] [nM]	Molecule
19.3	122	COc1nn(C)c2c1-c1cnc(N)c(c1)OC(C)c1cccnc1C(=O)N(C)C2 (single isomer, unassigned) [Example 66, 7-amino-3-methoxy-1,10,16-trimethyl-16,17-dihydro-1H-8,4-(metheno)-pyrazolo[4,3-g]pyrido[2,3-l][1,4,10]oxadiazacyclotetradecin-15(10H)-one]
13	34	CCN1Cc2c(c(C)nn2C)-c2cnc(N)c(c2)OC(C)c2cc(F)ccc2C1=O (single isomer, unassigned) [Example 10, 7-amino-16-ethyl-12-fluoro-1,3,10-trimethyl-16,17-dihydro-1H-8,4-(metheno)pyrazolo[4,3-h][2,5,11]benzoxadiazacyclotetradecin-15(10H)-one]
3	20.5	CC(C)Cn1nnc2c1-c1cnc(N)c(c1)O[C@H](C)c1cc(F)ccc1C(=O)N(C)C2 [Example 134, (10R)-7-amino-12-fluoro-10,16-dimethyl-3-(2-methylpropyl)-16,17-dihydro-3H-8,4-(metheno)[1,2,3]triazolo[4,5-h][2,5,11]benzoxadiazacyclotetradecin-15(10H)-one]
12	70	Cc1nn(S(=O)(=O)N(C)C)c2c1-c1cnc(N)c(c1)OCc1cc(F)ccc1OCCC2 [Example 44, 7-amino-12-fluoro-N,N,3-trimethyl-17,18-dihydro-10H-8,4-(metheno)-pyrazolo[3,4-e][1,12,9]benzodioxazacyclopentadecine-1(16H)-sulfonamide]
9.1	131	C[C@H]1Oc2cc(cnc2N)-c2c(cnc3cccnc23)CN(C)C(=O)c2ccc(F)cc21 [Example 103, (11R)-8-amino-13-fluoro-11,17-dimethyl-17,18-dihydro-9,5-(metheno)-[1,5]naphthyridino[4,3-h][2,5,11]benzoxadiazacyclotetradecin-16(11H)-one]
< 0.2	2.5	CC1Oc2cc(cnc2N)-c2c(nn(C)c2C2CC2)CN(C)C(=O)c2ccc(F)cc21 (single isomer, unassigned) [Example 15, 7-amino-3-cyclopropyl-12-fluoro-2,10,16-trimethyl-16,17-dihydro-2H-8,4-(metheno)pyrazolo[4,3-h][2,5,11]benzoxadiazacyclotetradecin-15(10H)-one]
29.3	90.2	CN1Cc2nn(C)c(C#N)c2-c2cnc(N)c(c2)OC(CF)c2cc(F)ccc2C1=O (single isomer, unassigned) [Example 84, 7-amino-12-fluoro-10-(fluoromethyl)-2,16-dimethyl-15-oxo-10,15,16,17-tetrahydro-2H-8,4-(metheno)pyrazolo[4,3-h][2,5,11]benzoxadiazacyclotetradecine-3-carbonitrile]
8.4	57.5	CC1Oc2nc(cnc2N)-c2c(nn(C)c2C#N)COCc2ccc(F)cc21 (stereo not shown) [Example 104, 7-amino-12-fluoro-2,10-dimethyl-2,10,15,17-tetrahydro-8,4-(azeno)pyrazolo[4,3-h][2,11,5]benzodioxazacyclotetradecine-3-carbonitrile]
4.6	14	CCC1Oc2cc(cnc2N)-c2c(OC)nn(C)c2CN(C)C(=O)c2ccc(F)cc21 (single isomer, unassigned) [Example 24, 7-amino-10-ethyl-12-fluoro-3-methoxy-1,16-dimethyl-16,17-dihydro-1H-8,4-(metheno)pyrazolo[4,3-h][2,5,11]benzoxadiazacyclotetradecin-15(10H)-one]
25.8	164	CC1Oc2cc(cnc2N)-c2c(nn(C)c2C#N)CN(C)C(=O)c2c(F)cccc21 (single isomer, unassigned) [Example 53, 7-amino-14-fluoro-2,10,16-trimethyl-15-oxo-10,15,16,17-tetrahydro-2H-8,4-(metheno)pyrazolo[4,3-h][2,5,11]benzoxadiazacyclotetradecine-3-carbonitrile]
